{"source": "paper PMC7536072", "about": "“Molecular and functional characterization of somatostatin-type signalling in a deuterostome invertebrate” (Open Biology, 2020)", "key": {"ArSSR3": {"tested_on": "ArSSR3", "sequence (as listed by the source)": "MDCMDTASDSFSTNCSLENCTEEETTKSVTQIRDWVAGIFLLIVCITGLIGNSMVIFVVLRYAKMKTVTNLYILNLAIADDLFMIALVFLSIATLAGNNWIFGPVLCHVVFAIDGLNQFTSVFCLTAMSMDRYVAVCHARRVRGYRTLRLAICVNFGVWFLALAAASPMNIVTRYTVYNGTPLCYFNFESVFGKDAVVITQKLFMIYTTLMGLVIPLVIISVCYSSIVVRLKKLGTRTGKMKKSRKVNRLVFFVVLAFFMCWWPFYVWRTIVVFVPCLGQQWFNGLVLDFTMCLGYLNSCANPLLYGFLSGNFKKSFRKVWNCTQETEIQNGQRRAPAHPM", "assay": "GFP-aequorin luminescence receptor activation assay, CHO-K1 cells, ArSSR3 + Gα16", "type": "cell-based, Asterias rubens", "conditions": "ArSSR3"}, "[1]": {"tested_on": "CHO-K1 cells transfected with an empty pcDNA3.1(+) vector", "assay": "luminescence control assay, CHO-K1 cells transfected with empty vector", "type": "cell-based, Chinese hamster", "conditions": "10^-12 to 10^-5 M (figure S12), 0.1 % Triton X-100 = 100%", "description": "In order to characterize the candidate SS-type receptors, a G-protein-dependent receptor activation assay was employed. Chinese hamster ovary (CHO)-K1 cells stably overexpressing the calcium-sensitive bioluminescent reporter GFP-aequorin fusion protein (G5A) were used as a heterologous expression system. Plasmids containing A. rubens SS-type receptor cDNAs were co-transfected with the promiscuous human Gα16, which is widely used for receptor deorphanization assays. […] After 3 h incubation, a fixed volume of cells was injected sequentially into each well containing different concentrations of peptides using a FLUOstar Omega Plate Reader (BMG LABTECH, Ortenberg, Germany). Luminescence values were recorded over a 35 s period after injection. The total luminescence of each well over the 35 s period was calculated and normalized to the maximum value obtained in each experiment (100% activation) and to the value obtained with the vehicle media (0% activation). […] EC50 values were calculated from dose–response curves using Prism 6. The luminescence responses triggered by 10^−5 M ArSS1, 10^−5 M ArSS2 and vehicle media were analysed by one-way ANOVA using Bonferroni's multiple comparisons post hoc test in Prism 6. […]"}, "ArSSR2": {"tested_on": "ArSSR2", "assay": "GFP-aequorin luminescence receptor activation assay, CHO-K1 cells, ArSSR2 + Gα16", "type": "cell-based, Asterias rubens", "conditions": "ArSSR2"}, "ArSSR1": {"tested_on": "ArSSR1", "assay": "GFP-aequorin luminescence receptor activation assay, CHO-K1 cells, ArSSR1 + Gα16", "type": "cell-based, Asterias rubens", "conditions": "ArSSR1"}, "[2]": {"tested_on": "cardiac stomach preparations from A. rubens", "conditions": "cited from earlier work; for cardiac stomach relaxant activity: ref [64],[67]", "source_text": "Likewise, ArSS2 caused dose-dependent relaxation of cardiac stomach preparations at concentrations between ... || ArSS2 is widely expressed in the digestive system of A. rubens, including the peristomial membrane, cardiac stomach, pyloric stomach, pyloric duct, and pyloric caeca. In the cardiac stomach, ArSSP2 transcripts are detected in cells located in the mucosa layer and ArSS2-immunoreactivity is present in the adjacent basi-epithelial nerve plexus. Consistent with this expression of ArSS2 in the cardiac stomach, ArSS2 causes dose-dependent relaxation of cardiac stomach preparations."}, "[3]": {"tested_on": "cardiac stomach preparations from A. rubens", "assay": "in vitro relaxation of cardiac stomach preparations", "design": "species or system Asterias rubens", "conditions": "n = 6", "description": "Synthetic ArSS2 ([…], with a disulfide bridge between the cysteine residues) was custom synthesized (Peptide Protein Research Ltd, Fareham, UK) to enable testing of its pharmacological effects on in vitro preparations of organs/muscles from A. rubens. ArSS2 was tested for its in vitro effects on the contractility of tube foot, apical muscle and cardiac stomach preparations from at least six different specimens of A. rubens. Individual tube foot preparations were dissected from starfish arms with their corresponding ampulla intact. Then cotton ligatures were tied around the ambulacral body wall and the tube foot disc and then the external epithelium of the tube foot was scraped off using a blunt scalpel blade to facilitate penetration of peptides when tested in vitro, as described previously. Apical muscle preparations were dissected from the aboral body wall with approximately 1 cm strips of apical muscle tied at each end with cotton ligatures. Cardiac stomach preparations were dissected as described previously and then were tied at the aboral side of the cardiac stomach and around the oesophagus with cotton ligatures. The dissected preparations were tied to a fixed metal hook orally and to a high-grade isotonic transducer (MLT0015; ADInstruments Ltd; Oxford, UK) aborally, suspended in a 20 ml aerated organ bath containing artificial seawater at approximately 11°C. The transducer was connected via a bridge amplifier (FE221 Bridge Amp, ADInstruments Ltd, Oxford, UK) to data acquisition hardware (PowerLab 2/36, ADInstruments Ltd, Oxford, UK). Data collected from PowerLab were visualized as traces and analysed using LabChart (v. 8.0.7) software installed on a laptop computer (Lenovo E540, Windows 7 Professional).\nTo examine the effects of ArSS2 on tube foot and cardiac stomach preparations, 10^−6 M acetylcholine (ACh) or artificial seawater (ASW) containing 30 mM added KCl was used to induce contraction of these preparations, respectively. Once a stable baseline contracted state was achieved, synthetic ArSS2 was added into the organ bath to sequentially achieve final concentrations in the range of 10^−10 to 10^−6 M. For these experiments, the contracting effect of 10^−6 M ACh or ASW containing 30 mM added KCl was defined as 100% and the relaxing effects of ArSS2 were then calculated as a percentage reversal of the 100% contracted state.\nExperiments were performed where the effects of ArSS2, S2 and asterotocin (at 10^−7 and 10^−6 M) on cardiac stomach preparations (n = 6) were compared. For these experiments, the effect of 10^−7 or 10^−6 M S2 was defined as 100% and the effect of asterotocin or ArSS2 was calculated as a % of the effect of S2. To determine if there were significant differences in magnitude of the relaxing effects of the three peptides on cardiac stomach preparations, data were analysed statistically using a two-tailed Student's t-test in Prism 6."}, "[4]": {"tested_on": "cardiac stomach of A. rubens", "conditions": "cited from earlier work", "source_text": "When starfish (A. rubens) feed, the cardiac stomach is relaxed and everted out of the mouth over the digestible soft tissues of prey (e.g. mussels). […] Therefore, because ArSS2 causes relaxation of cardiac stomach preparations in vitro, we investigated if ArSS2 also triggers cardiac stomach eversion when injected in vivo. Firstly, 15 medium-sized starfish were starved for one week to norm ... || Asterias rubens feeds by everting its cardiac stomach through a narrow oral opening (mouth) and over the digestible parts of its prey, and for this to be accomplished, the cardiac stomach must be in a relaxed state. Neuropeptides that cause cardiac stomach in vitro are therefore potential mediators of cardiac stomach eversion in vivo. […] Therefore, here we investigated if ArSS2 also triggers cardiac stomach ever ... || The in vitro relaxing effect of ArSS2 on the cardiac stomach of A. rubens is of interest from a physiological/behavioural perspective because relaxation of the cardiac stomach is required for the extraoral feeding behaviour of starfish where it is everted out of the mouth and over the digestible soft tissue of prey such as mussels."}, "[5]": {"tested_on": "cardiac stomach of A. rubens", "assay": "in vivo cardiac stomach eversion after injection into the perivisceral coelom", "design": "species or system Asterias rubens", "conditions": "10 µl 10^−3 M into perivisceral coelom, n = 10", "description": "When starfish (A. rubens) feed, the cardiac stomach is relaxed and everted out of the mouth over the digestible soft tissues of prey (e.g. mussels). […] Therefore, because ArSS2 causes relaxation of cardiac stomach preparations in vitro, we investigated if ArSS2 also triggers cardiac stomach eversion when injected in vivo. Firstly, 15 medium-sized starfish were starved for one week to normalize their physiological status. A Hamilton […] 50 μl syringe (Sigma-Aldrich; Gillingham, UK) was used to inject 10 μl 1 mM ArSS2, or 10 μl 1 mM asterotocin (positive control) or 10 μl water (negative control) into the […] coelom of starfish. ArSS2 was tested on five individuals firstly and then the next day, asterotocin was tested on the same batch of five individuals. For another five individuals, asterotocin was tested first and then ArSS2 was tested on the following day. The remaining five individuals were injected with water as a control. Thus, both ArSS2 and asterotocin were tested on ten starfish. For each starfish, the test agent was injected via two sites in the dorsal body wall of the arms proximal to the junctions with the central disc region. Care was taken to inject test agents into the […] coelom and not into the cardiac stomach."}, "[6]": {"tested_on": "tube foot preparations from A. rubens", "conditions": "ref [67]; cited from earlier work"}, "[7]": {"tested_on": "apical muscle preparations from A. rubens", "conditions": "ref [67]; cited from earlier work"}, "[8]": {"conditions": "10^−5 M, vs BSA media (control) and, for ArSS2, vs ArSS1, one-way ANOVA, Bonferroni"}, "[9]": {"conditions": "injected in vivo, ref [66],[67]"}}, "note": "Entries after “also recorded” stand apart in the source; their conditions may differ. Like-named read-outs stand apart in the source and are kept apart here. Bridges are numbered along the chain shown (N, C = ends). Where no end group is shown, it is not given here."}
{"substance": "KCIGRFQPFSMPC (disulfide 2-13 (inferred)) [ArSS1, 13-residue SS-type neuropeptide of Asterias rubens derived from ArSSP1 (…)]", "values": [{"measurement": "luminescence compared with control", "setting": "ArSSR3; [8]", "value": "not significantly different"}, {"measurement": "triggering of luminescence", "setting": "ArSSR3; 10^−21 to 10^−4 M", "value": "did not trigger luminescence"}, {"measurement": "luminescence response in cells with empty vector", "setting": "[1]", "value": "do not trigger luminscence; also recorded: Neither ArSS1 nor ArSS2 elicited responses"}, {"measurement": "luminescence compared with control", "setting": "ArSSR2; [8]", "value": "not significantly different"}, {"measurement": "triggering of luminescence", "setting": "ArSSR2; 10^−21 to 10^−4 M", "value": "did not trigger luminescence"}, {"measurement": "luminescence compared with control", "setting": "ArSSR1; [8]", "value": "not significantly different"}, {"measurement": "triggering of luminescence", "setting": "ArSSR1; 10^−21 to 10^−4 M", "value": "did not trigger luminescence"}]}
{"substance": "SGPYSFNSGLTF-NH2 [S2, SALMFamide neuropeptide S2 (…-NH2)]", "values": [{"measurement": "cardiac stomach relaxant activity", "setting": "[2]", "value": "act as cardiac stomach relaxants"}, {"measurement": "relaxation of tube foot and/or cardiac stomach preparations", "setting": "[2]; tube foot and/or cardiac stomach, ref [64],[66]", "value": "cause relaxation of tube foot and/or cardiac stomach preparations"}, {"measurement": "magnitude of cardiac stomach relaxing action relative to asterotocin", "setting": "[3]; 10^−6 M, KCl-contracted, mean", "value": "approximately 50 % of the effect of asterotocin"}, {"measurement": "cardiac stomach eversion", "setting": "[4]; [9]", "value": "induce cardiac stomach eversion when injected in vivo"}]}
{"substance": "CLVQDCPEG-NH2 (disulfide 1-6 (inferred)) [asterotocin, reference compound]", "values": [{"measurement": "cardiac stomach relaxant activity", "setting": "[2]", "value": "act as cardiac stomach relaxants"}, {"measurement": "effectiveness as cardiac stomach relaxant compared with S2", "setting": "[2]; ref [67]", "value": "much more effective as a cardiac stomach relaxant than S2"}, {"measurement": "relaxation of cardiac stomach preparations", "setting": "[2]; ref [67]", "value": "caused relaxation of cardiac stomach and apical muscle preparations but not tube feet"}, {"measurement": "mean maximal eversion, area of everted cardiac stomach", "setting": "[5]; 10 min recording", "value": "~125 % of the area of the central disc region"}, {"measurement": "incidence of cardiac stomach eversion", "setting": "[5]", "value": "all of the animals"}, {"measurement": "time of mean maximal eversion after injection", "setting": "[5]", "value": "approximately 9 min"}, {"measurement": "relaxing effect compared with S2", "setting": "[3]; 10^−6 M, two-tailed Student's t-test p = 0.0255", "value": "significantly larger than the effect S2"}, {"measurement": "relaxing effect compared with ArSS2", "setting": "[3]; 10^−6 M, two-tailed Student's t-test p = 0.0483", "value": "significantly larger"}, {"measurement": "magnitude of cardiac stomach relaxing action relative to S2", "setting": "[3]; 10^−7 M, KCl-contracted, mean", "value": "3.5 times the effect of S2"}, {"measurement": "relaxing effect compared with S2", "setting": "[3]; 10^−7 M, two-tailed Student's t-test p = 0.0055", "value": "significantly larger than the effect of S2"}, {"measurement": "relaxing effect compared with ArSS2", "setting": "[3]; 10^−7 M, two-tailed Student's t-test p = 0.0250", "value": "significantly larger"}, {"measurement": "cardiac stomach eversion", "setting": "[4]; 100 µl 10^−3 M into perivisceral coelom, ref [67]", "value": "complete eversion of the cardiac stomach"}, {"measurement": "cardiac stomach eversion", "setting": "[4]; [9]", "value": "induce cardiac stomach eversion when injected in vivo"}, {"measurement": "effectiveness and potency in triggering cardiac stomach eversion compared with S2", "setting": "[4]; ref [67]", "value": "much more effective and potent than S2"}, {"measurement": "relaxation of tube foot preparations", "setting": "[6]", "value": "caused relaxation of cardiac stomach and apical muscle preparations but not tube feet"}, {"measurement": "relaxation of apical muscle preparations", "setting": "[7]", "value": "caused relaxation of cardiac stomach and apical muscle preparations but not tube feet"}]}
